Data reported in ChEMBL document CHEMBL3885881, “DrugMatrix”.

Organism: Rattus norvegicus
Experiment: DrugMatrix - Regimen: Daily Repeat
Assay type: toxicity, organism-based, Sprague-Dawley
Parameters: regimen Daily Repeat, gender Male, age 6-8 weeks
Conditions: in vivo, sc, route subcutaneous, […]; for ABSOLUTE BASOPHIL / ABSOLUTE EOSINOPHIL / ABSOLUTE LYMPHOCYTE / ABSOLUTE MONOCYTE / ABSOLUTE SEGMENTED NEUTROPHIL / BASOPHIL / EOSINOPHIL / ERYTHROCYTE COUNT / HEMATOCRIT / HEMOGLOBIN / LEUKOCYTE COUNT / LYMPHOCYTE / MEAN CORPUSCULAR HEMOGLOBIN / MEAN CORPUSCULAR HEMOGLOBIN CONCENTRATION / MEAN CORPUSCULAR VOLUME / MONOCYTE / NEUTROPHIL / NUCLEATED RED BLOOD CELLS / PLATELET COUNT: tissue Blood; for ALANINE AMINOTRANSFERASE / ALBUMIN / ALKALINE PHOSPHATASE / ASPARTATE AMINOTRANSFERASE / BLOOD UREA NITROGEN / CARBON DIOXIDE / CHLORIDE / CHOLESTEROL / CREATINE PHOSPHOKINASE / CREATININE / GLUCOSE / LACTATE DEHYDROGENASE / LIPASE / PHOSPHORUS / POTASSIUM / SODIUM / TOTAL BILIRUBIN / TOTAL PROTEIN / URIC ACID: tissue Plasma
[1] = 18 mg/kg, 120 h, dose level High, time 5 day
[2] = 72 h, dose 1.8 mg/Kg, dose level Low, time 3 day
[3] = 120 h, dose 1.8 mg/Kg, dose level Low, time 5 day

CN(C)c1ccc(C(=C2C=CC(=[N+](C)C)C=C2)c2ccc(N(C)C)cc2)cc1.[Cl-] [GENTIAN VIOLET]
ABSOLUTE BASOPHIL [1]: 0 CELLS/uL | ABSOLUTE EOSINOPHIL [1]: 0 CELLS/uL | ABSOLUTE LYMPHOCYTE [1]: 15601 CELLS/uL | ABSOLUTE MONOCYTE [1]: 1849 CELLS/uL | ABSOLUTE SEGMENTED NEUTROPHIL [1]: 7750 CELLS/uL | BASOPHIL [1]: 0% | EOSINOPHIL [1]: 0% | ERYTHROCYTE COUNT [1]: 5.48 x10E6/uL | HEMATOCRIT [1]: 32.93% | HEMOGLOBIN [1]: 12.37 G/DL | LEUKOCYTE COUNT [1]: 25.2 x10E3/uL | LYMPHOCYTE [1]: 61.67% | MEAN CORPUSCULAR HEMOGLOBIN [1]: 22.57 pg | MEAN CORPUSCULAR HEMOGLOBIN CONCENTRATION [1]: 37.57 G/DL | MEAN CORPUSCULAR VOLUME [1]: 60.17 fL | MONOCYTE [1]: 7.33% | NEUTROPHIL [1]: 31% | NUCLEATED RED BLOOD CELLS [1]: 0 /100WBC | PLATELET COUNT [1]: 1331.67 x10E3/uL | ALANINE AMINOTRANSFERASE [1]: 49 u/L | ALBUMIN [1]: 3.03 G/DL | ALKALINE PHOSPHATASE [1]: 294.67 u/L | ASPARTATE AMINOTRANSFERASE [1]: 116 u/L | BLOOD UREA NITROGEN [1]: 16.33 mg/dL | CARBON DIOXIDE [1]: 30.67 mmol/L | CHLORIDE [1]: 100 MEQ/L | CHOLESTEROL [1]: 62.33 mg/dL | CREATINE PHOSPHOKINASE [1]: 196.33 u/L | CREATININE [1]: 0.16 mg/dL | GLUCOSE [1]: 141.33 mg/dL | LACTATE DEHYDROGENASE [1]: 146.33 u/L | LIPASE [1]: 8 u/L | PHOSPHORUS [1]: 11.3 mg/dL | POTASSIUM [1]: 6.88 MEQ/L | SODIUM [1]: 143.85 MEQ/L | TOTAL BILIRUBIN [1]: 0.13 mg/dL | TOTAL PROTEIN [1]: 5.57 G/DL | URIC ACID [1]: 1.37 mg/dL | ABSOLUTE BASOPHIL [2]: 0 CELLS/uL | ABSOLUTE EOSINOPHIL [2]: 115.33 CELLS/uL | ABSOLUTE LYMPHOCYTE [2]: 15675.67 CELLS/uL | ABSOLUTE MONOCYTE [2]: 309.33 CELLS/uL | ABSOLUTE SEGMENTED NEUTROPHIL [2]: 2499.67 CELLS/uL | BASOPHIL [2]: 0% | EOSINOPHIL [2]: 0.67% | ERYTHROCYTE COUNT [2]: 5.43 x10E6/uL | HEMATOCRIT [2]: 34.87% | HEMOGLOBIN [2]: 12.97 G/DL | LEUKOCYTE COUNT [2]: 18.6 x10E3/uL | LYMPHOCYTE [2]: 84.33% | MEAN CORPUSCULAR HEMOGLOBIN [2]: 23.9 pg | MEAN CORPUSCULAR HEMOGLOBIN CONCENTRATION [2]: 37.2 G/DL | MEAN CORPUSCULAR VOLUME [2]: 64.3 fL | MONOCYTE [2]: 1.67% | NEUTROPHIL [2]: 13.33% | NUCLEATED RED BLOOD CELLS [2]: 0 /100WBC | PLATELET COUNT [2]: 1276.67 x10E3/uL | ALANINE AMINOTRANSFERASE [2]: 46 u/L | ALBUMIN [2]: 3.93 G/DL | ALKALINE PHOSPHATASE [2]: 341 u/L | ASPARTATE AMINOTRANSFERASE [2]: 77.33 u/L | BLOOD UREA NITROGEN [2]: 15 mg/dL | CARBON DIOXIDE [2]: 26.67 mmol/L | CHLORIDE [2]: 102 MEQ/L | CHOLESTEROL [2]: 86.67 mg/dL | CREATINE PHOSPHOKINASE [2]: 247 u/L | CREATININE [2]: 0.19 mg/dL | GLUCOSE [2]: 138.67 mg/dL | LACTATE DEHYDROGENASE [2]: 298.33 u/L | LIPASE [2]: 9.33 u/L | PHOSPHORUS [2]: 11.5 mg/dL | POTASSIUM [2]: 6.51 MEQ/L | SODIUM [2]: 144.73 MEQ/L | TOTAL BILIRUBIN [2]: 0.23 mg/dL | TOTAL PROTEIN [2]: 5.73 G/DL | URIC ACID [2]: 1.4 mg/dL | ABSOLUTE BASOPHIL [3]: 0 CELLS/uL | ABSOLUTE EOSINOPHIL [3]: 0 CELLS/uL | ABSOLUTE LYMPHOCYTE [3]: 17006.67 CELLS/uL | ABSOLUTE MONOCYTE [3]: 546.67 CELLS/uL | ABSOLUTE SEGMENTED NEUTROPHIL [3]: 2113.33 CELLS/uL | BASOPHIL [3]: 0% | EOSINOPHIL [3]: 0% | ERYTHROCYTE COUNT [3]: 5.57 x10E6/uL | HEMATOCRIT [3]: 34.4% | HEMOGLOBIN [3]: 12.93 G/DL | LEUKOCYTE COUNT [3]: 19.67 x10E3/uL | LYMPHOCYTE [3]: 86% | MEAN CORPUSCULAR HEMOGLOBIN [3]: 23.2 pg | MEAN CORPUSCULAR HEMOGLOBIN CONCENTRATION [3]: 37.6 G/DL | MEAN CORPUSCULAR VOLUME [3]: 61.77 fL | MONOCYTE [3]: 2.67% | NEUTROPHIL [3]: 11.33% | NUCLEATED RED BLOOD CELLS [3]: 0 /100WBC | PLATELET COUNT [3]: 1503 x10E3/uL | ALANINE AMINOTRANSFERASE [3]: 51 u/L | ALBUMIN [3]: 3.47 G/DL | ALKALINE PHOSPHATASE [3]: 278 u/L | ASPARTATE AMINOTRANSFERASE [3]: 83.67 u/L | BLOOD UREA NITROGEN [3]: 19 mg/dL | CARBON DIOXIDE [3]: 27.33 mmol/L | CHLORIDE [3]: 105 MEQ/L | CHOLESTEROL [3]: 73.33 mg/dL | CREATINE PHOSPHOKINASE [3]: 310 u/L | CREATININE [3]: 0.35 mg/dL | GLUCOSE [3]: 162 mg/dL | LACTATE DEHYDROGENASE [3]: 102.67 u/L | LIPASE [3]: 9.67 u/L | PHOSPHORUS [3]: 11.3 mg/dL | POTASSIUM [3]: 6.63 MEQ/L | SODIUM [3]: 144.03 MEQ/L | TOTAL BILIRUBIN [3]: 0.13 mg/dL | TOTAL PROTEIN [3]: 5.8 G/DL | URIC ACID [3]: 1.63 mg/dL
